# US9730446B2, “Herbicidal compositions comprising 4-amino-3-chloro-6-(4-chloro-2-fluoro-3-methoxyphenyl)pyridine-2-carboxylic acid or a derivative thereof and propyzamide” (Dow AgroSciences LLC, priority 2013, dated 2017)
# Columns and labels:
# Assay in all cases: Postemergent herbicidal activity, greenhouse
# Type in all cases: in vivo
# Conditions in all cases: foliar, 14 d
# [1] = tested on: AMARE Amaranthus retroflexus L. (redroot pigweed)
# Protocol: (§1) Evaluation of Postemergent Herbicidal Activity. Seeds or nutlets of the desired test plant species were planted in Sun Gro Metro-Mix® 360 planting mixture, which typically has a pH of 6.0 to 6.8 and an organic matter content of about 30 percent, in plastic pots with a surface area of 64 square centimeters (cm^2). […] The plants were grown for 7-21 days (d) in a greenhouse with an approximate 15 hour (h) photoperiod which was maintained at about 23-29° C. during the day and 22-28° C. during the night. Nutrients and water were added on a regular basis and supplemental lighting was provided with overhead metal halide 1000-Watt lamps as necessary. The plants were employed for testing when they reached the first or second true leaf stage.
# (§2) A weighed amount, determined by the highest rate to be tested, of each test compound was placed in a 25 milliliter (mL) glass vial and was dissolved in 4 mL of a 97:3 volume per volume (v/v) mixture of acetone and dimethyl sulfoxide (DMSO) to obtain concentrated stock solutions. […] The concentrated stock solutions obtained were diluted with 20 mL of an aqueous mixture containing acetone, water, isopropyl alcohol, DMSO, Atplus 411F crop oil concentrate, and Triton® X-155 surfactant in a 48.5:39:10:1.5:1.0:0.02 v/v ratio to obtain spray solutions containing the highest application rates. Additional application rates were obtained by serial dilution of 12 mL of the high rate solution into a solution containing 2 mL of a 97:3 v/v mixture of acetone and DMSO and 10 mL of an aqueous mixture containing acetone, water, isopropyl alcohol, DMSO, Atplus 411F crop oil concentrate, and Triton X-155 surfactant in a 48.5:39:10:1.5:1.0:0.02 v/v ratio to obtain 1/2×, 1/4×, 1/8× and 1/16× rates of the high rate. Compound requirements are based upon a 12 mL application volume at a rate of 187 liters per hectare (L/ha). Formulated compounds were applied to the plant material with an overhead Mandel track sprayer equipped with 8002E nozzles calibrated to deliver 187 L/ha over an application area of 0.503 square meters (m^2) at a spray height of 18 inches (43 cm) above the average plant canopy height. Control plants were sprayed in the same manner with the solvent blank.
# (§3) Treatments consisted of the methyl ester of 4-amino-3-chloro-6-(4-chloro-2-fluoro-3-methoxyphenyl)pyridine-2-carboxylic acid (Cmpd 1) as technical grade material and propyzamide (Kerb 50 W) alone and in combination.
# (§4) The treated plants and control plants were placed in a greenhouse as described above and watered by subirrigation to prevent wash-off of the test compounds. After 14 d, the condition of the test plants as compared with that of the untreated plants was determined visually and scored on a scale of 0 to 100 percent where 0 corresponds to no injury and 100 corresponds to complete kill.
# (§5) Colby's equation was used to determine the herbicidal effects expected from the mixtures (Colby, S. R. Calculation of the synergistic and antagonistic response of herbicide combinations. Weeds 1967, 15, 20-22). More specifically, the following equation was used to calculate the expected activity of mixtures containing two active ingredients, A and B: Expected=A+B−(A×B/100) A=observed efficacy of active ingredient A at the same concentration as used in the mixture; B=observed efficacy of active ingredient B at the same concentration as used in the mixture.
# [2] = tested on: CHEAL Chenopodium album L. (common lambsquarters)
# Protocol: as §1, §2, §3, §4, §5
# [3] = tested on: EPHHL Euphorbia heterophylla L. (wild poinsettia)
# Protocol: as §1, §2, §3, §4, §5
# [4] = tested on: GLXMA Glycine max (volunteer soybean)
# Protocol: as §1, §2, §3, §4, §5
# [5] = tested on: IPOHE Ipomoea hederacea (L.) Jacq. (ivyleaf morningglory)
# Protocol: as §1, §2, §3, §4, §5
# [6] = tested on: STEME Stellaria media (L.) Vill. (common chickweed)
# Protocol: as §1, §2, §3, §4, §5
# [7] = tested on: VIOTR Viola tricolor L. (wild violet)
# Protocol: as §1, §2, §3, §4, §5
smiles,measurement,setting,value
"COC(=O)c1nc(-c2ccc(Cl)c(OC)c2F)cc(N)c1Cl [Cmpd I, methyl ester of 4-amino-3-chloro-6-(4-chloro-2-fluoro-3-methoxyphenyl)pyridine-2-carboxylic acid]","% control rated visually, ob (observed)",[1]; Cmpd I 2.5 g ae/ha,50%
same,"% control rated visually, ob (observed)",[1]; Cmpd I 5 g ae/ha,58%
same,"% control rated visually, ob (observed)",[1]; Cmpd I 10 g ae/ha,77%
same,"% control rated visually, ob (observed)",[2]; Cmpd I 2.5 g ae/ha,82%
same,"% control rated visually, ob (observed)",[2]; Cmpd I 5 g ae/ha,90%
same,"% control rated visually, ob (observed)",[2]; Cmpd I 10 g ae/ha,91%
same,"% control rated visually, ob (observed)",[3]; Cmpd I 2.5 g ae/ha,85%
same,"% control rated visually, ob (observed)",[3]; Cmpd I 5 g ae/ha,93%
same,"% control rated visually, ob (observed)",[3]; Cmpd I 10 g ae/ha,100%
same,"% control rated visually, ob (observed)",[4]; Cmpd I 2.5 g ae/ha,80%
same,"% control rated visually, ob (observed)",[4]; Cmpd I 5 g ae/ha,87%
same,"% control rated visually, ob (observed)",[4]; Cmpd I 10 g ae/ha,100%
same,"% control rated visually, ob (observed)",[5]; Cmpd I 2.5 g ae/ha,20%
same,"% control rated visually, ob (observed)",[5]; Cmpd I 5 g ae/ha,38%
same,"% control rated visually, ob (observed)",[5]; Cmpd I 10 g ae/ha,43%
same,"% control rated visually, ob (observed)",[6]; Cmpd I 2.5 g ae/ha,50%
same,"% control rated visually, ob (observed)",[6]; Cmpd I 5 g ae/ha,57%
same,"% control rated visually, ob (observed)",[6]; Cmpd I 10 g ae/ha,72%
same,"% control rated visually, ob (observed)",[7]; Cmpd I 2.5 g ae/ha,30%
same,"% control rated visually, ob (observed)",[7]; Cmpd I 5 g ae/ha,43%
same,"% control rated visually, ob (observed)",[7]; Cmpd I 10 g ae/ha,62%
